Data reported in patent US9296728B2, “Therapeutic compounds” (Regents of the University of Minnesota, priority 2012, dated 2016).

Experiments:
[1] = Toxicity study in BALB/c nude mice containing WiDr colorectal adenocarcinoma xenograft (body weight); type: in vivo; conditions: BALB/c nude mice with WiDr xenograft
Experimental: Female BALB/c nude mice weighing ˜20 g were taken and 5.0 10^6 WiDr cancer cells were implanted into their right flanks with a 1:1 mixture of 0.1 mL PBS and matrigel. The tumor was allowed to grow to a size of ˜150 cubic millimeters (14 days). The mice were randomly chosen by chance and assigned into 5 groups (6 mice per group), one group being the control group to which tumor was allowed to grow without any drug administration (food only). The drugs were administered twice daily by P.O. or I.P. Group 1 mice were administered orally with 50 mg/kg of Compound 20. Groups 2, 3 and 4 mice were treated via IP with 10 mg/kg Compound 20, 8 mg/kg of Compound 14 and 238 mg/kg CHC respectively. Body weight changes were recorded every two days for 3 weeks.

MCT1 = MCT1 (Rattus norvegicus (Rat), UniProt P53987); assay: Test A. MCT1 inhibition via lactate uptake in rat brain endothelial (RBE4) cells; type: cell-based; conditions: 14C-lactate uptake
Experimental: Test A. MCT1 Inhibition Via Lactate Uptake Rat Brain Endothelial Cells
The entire lactate uptake studies for the inhibition of MCT1 were carried out on RBE4 (Rat Brain Endothelial 4) cells. The expression of MCT1 on these cells was confirmed by Western Blotting. The cells were plated approximately 20-24 hours before the experiment, the number of cells being approximately 10^5 cells per well. The test compounds were dissolved in DMSO and diluted 1000 times using a solution of HEPES buffer (pH 7.43) which consists of 3 μM ^14C-Lactate and 2 μM L-Lactate. The cells were washed twice with 500 μL of HEPES buffer and the cells were allowed to equilibrate for 15 minutes at 37° C. The HEPES buffer was removed and 250 μL of the test sample was added in triplicates. This was repeated for all the compounds, including the controls (CHC and DMSO). After 15 minutes, the compounds were removed from the well and 500 μL of ice-cold stop buffer (0.1 mM CHC solution in HEPES buffer) was added. The plate was kept on ice. Now, the HEPES buffer in one triplicate was removed and DMSO solution was added and immediately removed and ice-cold stop buffer was added. This was considered as “Zero”. One triplicate was left blank, which was used for protein assay after lysing the cells. The cells were washed twice with ice-cold HEPES buffer and then 250 μL of 0.1M NaOH in 5% Triton-X solution was added and the plate is kept on a shaker for 40 minutes to lyse the cells. 150 μL of the lysed cells was added into 4 mL of the scintillation fluid in a scintillation vial and scintillation count was obtained in disintegrations per minute (dpm). The percent inhibition values were calculated by taking DMSO as minimum. Concentration study (usually 9-12 dilutions) was done to determine the IC50 of each compound.

[2] = Toxicity study in healthy ICR mice (body weight, WBC, RBC); type: in vivo; conditions: for RBC ± SEM / WBC ± SEM: end of day 22
Experimental: 60 ICR mice weighing ˜27 grams were randomly assigned into 5 groups (12 animals, 6 male and 6 female per group), one group being the control group without any drug administration (food only). The drugs were administered twice daily by P.O. or I.P. Group 1 and 3 were administered orally with 50 mg/Kg of Compound 20 and 18 mg/Kg of Compound 14 respectively. Group 2 and 4 mice were injected intraperitoneally with 6.67 mg/Kg of Compound 20 and 5.3 mg/Kg of Compound 14 (dissolved in water) respectively. The body weights of mice were recorded daily for 22 days. At the end of the 22nd day, 3 mice were randomly selected from each group and their blood samples were collected for detailed analysis of white blood cell (WBC) and red blood cell (RBC) counts. The mice were then euthanized with CO2.

[3] = system: WiDr xenograft tumor model; assay: Anticancer efficacy in Balb/c nude mice, WiDr xenograft (Example 8); type: in vivo; conditions: BALB/c nude mice with WiDr xenograft, 50-100 mg/Kg p.o. or i.p.
Experimental: Female BALB/c nude mice weighing ˜20 g were taken and 5.0 10^6 WiDr cancer cells were implanted into their right flanks with 1:1 mixture of 0.1 mL PBS and matrigel. The mice were arbitrarily chosen by chance and assigned into 7 groups (6 animals/group) and the treatment was started from the same day of the implantation of cancer cells. Mice in group 1 were orally administered two times daily with 100 mg/Kg of Compound 20. Mice in group 2 were orally administered four times per day with 50 mg/Kg of Compound 20. Group 3 mice were injected intraperitoneally 2 times per day with 100 mg/Kg of Compound 20. Group 4 mice were injected intraperitoneally one time per day with 100 mg/Kg and group 5 mice were injected intraperitoneally 2 times per day with 50 mg/Kg of Compound 20. Group 6 was treated with 0.2 mL of 2% DMSO in water intraperitoneally 4 times daily and group 7 mice were assigned as the control group to which tumor was allowed to grow without any drug administration (food only). The tumor volume was recorded every two days using the formula
[formula] where a is the long diameter of the tumor and b is the short diameter of the tumor. […] The inhibition rate was determined using the formula:
[formula] where C is average tumor weight of control group, T is average tumor weight of test group. […] The inhibition rate was determined using the above formula.

Chain of MCT1 (P53987 whole entry): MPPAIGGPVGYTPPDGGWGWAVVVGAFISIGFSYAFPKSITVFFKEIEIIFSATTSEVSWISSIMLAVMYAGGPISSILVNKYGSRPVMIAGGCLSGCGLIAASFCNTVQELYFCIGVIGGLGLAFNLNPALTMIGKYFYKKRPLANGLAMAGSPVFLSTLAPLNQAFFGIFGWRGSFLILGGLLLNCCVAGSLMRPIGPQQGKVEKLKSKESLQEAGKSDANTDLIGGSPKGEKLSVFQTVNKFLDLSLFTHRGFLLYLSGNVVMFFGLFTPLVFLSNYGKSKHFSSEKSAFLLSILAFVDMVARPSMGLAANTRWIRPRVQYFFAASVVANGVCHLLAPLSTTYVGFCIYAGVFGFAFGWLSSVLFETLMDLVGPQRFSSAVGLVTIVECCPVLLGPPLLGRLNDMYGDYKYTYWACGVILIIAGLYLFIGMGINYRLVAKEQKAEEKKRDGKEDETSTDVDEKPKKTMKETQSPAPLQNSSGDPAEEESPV
Chain of MCT1 (P26453 141-388 partner): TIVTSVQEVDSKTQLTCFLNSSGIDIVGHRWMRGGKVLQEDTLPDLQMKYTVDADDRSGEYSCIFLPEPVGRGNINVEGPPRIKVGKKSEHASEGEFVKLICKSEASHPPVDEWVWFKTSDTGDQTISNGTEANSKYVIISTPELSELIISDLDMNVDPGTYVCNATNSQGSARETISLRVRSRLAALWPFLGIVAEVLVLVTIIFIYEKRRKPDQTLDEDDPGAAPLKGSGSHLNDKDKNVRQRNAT

SMILES: COc1cc(N(c2ccccc2)c2ccccc2)ccc1/C=C(\C#N)C(=O)O [Compound 20]
- Weight in grams (Day 0) ([1]; 10 mg/kg i.p. twice daily): 21.93 grams
- Weight in grams (Day 22) ([1]; 10 mg/kg i.p. twice daily): 23.38 grams
- Weight in grams (Day 0) ([1]; 50 mg/kg p.o. twice daily): 21.85 grams
- Weight in grams (Day 22) ([1]; 50 mg/kg p.o. twice daily): 23.01 grams
- IC50 (MCT1): 0.008 µM
- Weight in grams (Day 0) ([2]; 6.67 mg/kg i.p. twice daily): 26.98 grams
- Weight in grams (Day 22) ([2]; 6.67 mg/kg i.p. twice daily): 33.54 grams
- RBC ± SEM ([2]; 6.67 mg/kg i.p. twice daily): 1.82 ± 0.05 10^13/L
- WBC ± SEM ([2]; 6.67 mg/kg i.p. twice daily): 3.83 ± 0.38 10^10/L
- Weight in grams (Day 0) ([2]; 50 mg/kg p.o. twice daily): 26.91 grams
- Weight in grams (Day 22) ([2]; 50 mg/kg p.o. twice daily): 32.61 grams
- RBC ± SEM ([2]; 50 mg/kg p.o. twice daily): 1.75 ± 0.06 10^13/L
- WBC ± SEM ([2]; 50 mg/kg p.o. twice daily): 4.10 ± 0.3 10^10/L
- systemic toxicity (inference from Example 8) [3]: without much systemic toxicity
